In assay [1] the target is T1, CRAC channel (Homo sapiens, UniProt Q96D31).
T1 construct: endogenous in cells; host or cells: HEK293 (ECACC), untransfected
The assay can be described thus: HEK Calcium Influx Assay (FLIPR), inhibition of store-operated Ca2+ entry after thapsigargin store depletion. Type of assay: cell-based. The settings on record: 10 μM compound, HEK293 cells, read-out: % inhib. [@ 10 μM] FLIPR. The essentials:
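HEK293 cells loaded with Calcium-4 dye in Ca2+-free HBS (pH 7.4), stores depleted with 2 μM thapsigargin for 10 min (100 μM EGTA); after 3 mM CaCl2 re-addition and 15 min steady-state, compounds added and FLIPR signal averaged 9.5–10 min post-dose. IC50 from 8-point 1:3.16 dilutions from 10 μM, normalised to DMSO and non-depleted wells.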

Assay [2] concerns Interleukin-2 (IL-2) production/release in Jurkat T cells. The assay can be described thus: Jurkat IL-2 Production Assay (PHA-stimulated, IL-2 AlphaLisa). It counts as cell-based. The settings on record: Homo sapiens, PHA 15 μg/ml, 22 h, inhibition of IL-2 production. In short, it runs like this:
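Jurkat E6-1 cells (5*10^5/well, DMEM/F12 with 10% FCS) pretreated 30 min with compound, then stimulated 22 h with 15 μg/ml PHA at 37 °C. IC50 from 8-point 1:3.16 dilution starting at 10 μM.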
A general note: Bead proximity is the source of the signal in Alpha formats.

Some results are limits rather than exact numbers.

T1 sequence (Q96D31 whole entry): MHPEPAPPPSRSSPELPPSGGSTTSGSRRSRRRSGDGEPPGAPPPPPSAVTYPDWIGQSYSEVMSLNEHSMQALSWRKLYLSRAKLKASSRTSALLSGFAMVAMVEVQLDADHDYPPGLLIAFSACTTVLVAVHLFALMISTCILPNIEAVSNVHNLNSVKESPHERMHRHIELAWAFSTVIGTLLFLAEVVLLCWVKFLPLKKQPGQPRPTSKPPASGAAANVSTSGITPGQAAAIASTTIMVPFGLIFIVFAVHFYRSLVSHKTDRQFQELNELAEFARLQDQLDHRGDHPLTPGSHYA

Regarding `COCc1ccc(N2CCc3[nH]c(-c4c(F)cccc4F)cc3C2)c(C)c1` [Example 105, 2-(2,6-Difluoro-phenyl)-5-[4-(methoxymethyl)-2-methyl-phenyl]-4,5,6,7-tetrahydro-1H-pyrrolo[3,2-c]pyridine], the inhibition at 10 µM in assay [1] was above 70%. Also, in assay [2], the IC50 was 0.5 to 1 µM.
The matching figures for `Cn1nc(C2CC2)cc1N1CCc2[nH]c(-c3c(F)cccc3F)cc2C1` [Example 106, 5-(5-Cyclopropyl-2-methyl-2H-pyrazol-3-yl)-2-(2,6-difluoro-phenyl)-4,5,6,7-tetrahydro-1H-pyrrolo[3,2-c]pyridine]: above 70% and 0.5 to 1 µM.
The matching figures for `Cn1nc(N2CCc3[nH]c(-c4c(F)cccc4F)cc3C2)cc1C1CC1` [Example 107, 5-(5-Cyclopropyl-1-methyl-1H-pyrazol-3-yl)-2-(2,6-difluoro-phenyl)-4,5,6,7-tetrahydro-1H-pyrrolo[3,2-c]pyridine]: above 70% and 1 to 5 µM.
Taken in the same sequence, the figures for `Cc1cc(S(C)(=O)=O)ncc1N1CCc2[nH]c(-c3ccncc3Cl)cc2C1` [Example 108, 2-(3-Chloro-pyridin-4-yl)-5-(4-methyl-6-methylsulfonyl-pyridin-3-yl)-4,5,6,7-tetrahydro-1H-pyrrolo[3,2-c]pyridine] were below 50% and 0.5 to 1 µM.
Take `Cc1cc(S(=O)(=O)N2CCC2)ccc1N1CCc2[nH]c(-c3c(F)cccc3F)cc2C1` [Example 109, 5-[4-(Azetidin-1-ylsulfonyl)-2-methyl-phenyl]-2-(2,6-difluoro-phenyl)-4,5,6,7-tetrahydro-1H-pyrrolo[3,2-c]pyridine]: the inhibition at 10 µM in assay [1] was below 50%. Also, the IC50 in assay [2] is below 0.5 µM.
The matching figures for `Cc1cc(S(C)(=O)=O)c(F)cc1N1CCc2[nH]c(C3CCCCC3)cc2C1` [Example 110, 2-Cyclohexyl-5-(5-fluoro-2-methyl-4-methylsulfonyl-phenyl)-4,5,6,7-tetrahydro-1H-pyrrolo[3,2-c]pyridine]: below 50% and 1 to 5 µM.
With `Cc1cc(OC(F)(F)F)ncc1N1CCc2[nH]c(-c3c(F)cccc3F)cc2C1` [Example 111, 2-(2,6-Difluoro-phenyl)-5-[4-methyl-6-(trifluoromethyloxy)-pyridin-3-yl]-4,5,6,7-tetrahydro-1H-pyrrolo[3,2-c]pyridine], the inhibition at 10 µM in assay [1] is below 50%. Moreover, in assay [2], the IC50 is below 0.5 µM.
Taken in the same sequence, the figures for `COc1cc(C(F)(F)F)ncc1N1CCc2[nH]c(-c3c(F)cccc3F)cc2C1` [Example 112, 2-(2,6-Difluoro-phenyl)-5-[4-methoxy-6-(trifluoromethyl)-pyridin-3-yl]-4,5,6,7-tetrahydro-1H-pyrrolo[3,2-c]pyridine] were below 50% and below 0.5 µM.
For the compound `Fc1cccc(F)c1-c1cc2c([nH]1)CCN(c1cnc(C(F)(F)F)cc1C1CC1)C2` [Example 113, 5-[4-Cyclopropyl-6-(trifluoromethyl)-pyridin-3-yl]-2-(2,6-difluoro-phenyl)-4,5,6,7-tetrahydro-1H-pyrrolo[3,2-c]pyridine], the inhibition at 10 µM in assay [1] was below 50%. The IC50 in assay [2] was below 0.5 µM.
For the compound `CNS(=O)(=O)c1ccc(N2CCc3[nH]c(-c4c(F)cccc4F)cc3C2)c(C)c1` [Example 114, 4-[2-(2,6-Difluoro-phenyl)-4,5,6,7-tetrahydro-1H-pyrrolo[3,2-c]pyridin-5-yl]-N,3-dimethyl-benzenesulfonic acid amide], the inhibition at 10 µM in assay [1] is below 50%. The IC50 in assay [2] is below 0.5 µM.
Taken in the same sequence, the figures for `Cc1cc(S(C)(=O)=O)ncc1N1CCc2[nH]c(C3CCCOC3)cc2C1` (stereo not drawn) [Example 115, 5-(4-Methyl-6-methylsulfonyl-pyridin-3-yl)-2-tetrahydro-pyran-3-yl-4,5,6,7-tetrahydro-1H-pyrrolo[3,2-c]pyridine] were below 50% and 1 to 5 µM.
The matching figures for `CCOc1cc(C(F)(F)F)ncc1N1CCc2[nH]c(-c3c(F)cccc3F)cc2C1` [Example 116, 2-(2,6-Difluoro-phenyl)-5-[4-ethoxy-6-(trifluoromethyl)-pyridin-3-yl]-4,5,6,7-tetrahydro-1H-pyrrolo[3,2-c]pyridine]: above 70% and below 0.5 µM.
Taken in the same sequence, the figures for `Cc1cc(S(=O)(=O)N2CCOCC2)ccc1N1CCc2[nH]c(-c3c(F)cccc3F)cc2C1` [Example 117, 4-[[4-[2-(2,6-Difluoro-phenyl)-4,5,6,7-tetrahydro-1H-pyrrolo[3,2-c]pyridin-5-yl]-3-methyl-phenyl]sulfonyl]-morpholine] were above 70% and 0.5 to 1 µM.
Regarding `Cc1cc(S(C)(=O)=O)ncc1N1CCc2[nH]c(C3CCCC3)cc2C1` [Example 118, 2-Cyclopentyl-5-(4-methyl-6-methylsulfonyl-pyridin-3-yl)-4,5,6,7-tetrahydro-1H-pyrrolo[3,2-c]pyridine], the inhibition at 10 µM in assay [1] is above 70%. The 50% inhibitory concentration (IC50) in assay [2] was in the range of 1 to 5 µM.
With `Cc1cc(S(=O)(=O)N2CCCCC2)ccc1N1CCc2[nH]c(-c3c(F)cccc3F)cc2C1` [Example 119, 2-(2,6-Difluoro-phenyl)-5-[2-methyl-4-(piperidin-1-ylsulfonyl)-phenyl]-4,5,6,7-tetrahydro-1H-pyrrolo[3,2-c]pyridine], the inhibition at 10 µM in assay [1] is below 50%. Further, the 50% inhibitory concentration (IC50) in assay [2] lay in the range of 1 to 5 µM.
Take `Cc1cc(S(=O)(=O)N(C)C2CC2)ccc1N1CCc2[nH]c(-c3c(F)cccc3F)cc2C1` [Example 120, N-Cyclopropyl-4-[2-(2,6-difluoro-phenyl)-4,5,6,7-tetrahydro-1H-pyrrolo[3,2-c]pyridin-5-yl]-N,3-dimethyl-benzenesulfonic acid amide]: in assay [1], the inhibition at 10 µM is below 50%. Also, the IC50 in assay [2] lay in the range of 1 to 5 µM.
Consider `Cc1cc(S(=O)(=O)N2CCCC2)ccc1N1CCc2[nH]c(-c3c(F)cccc3F)cc2C1` [Example 121, 2-(2,6-Difluoro-phenyl)-5-[2-methyl-4-(pyrrolidin-1-ylsulfonyl)-phenyl]-4,5,6,7-tetrahydro-1H-pyrrolo[3,2-c]pyridine], for which the inhibition at 10 µM in assay [1] was above 70%. Further, the IC50 in assay [2] is 1 to 5 µM.
The matching figures for `Cc1cc(S(C)(=O)=O)ncc1N1CCc2[nH]c(C3CCC(F)(F)CC3)cc2C1` [Example 122, 2-(4,4-Difluoro-cyclohexyl)-5-(4-methyl-6-methylsulfonyl-pyridin-3-yl)-4,5,6,7-tetrahydro-1H-pyrrolo[3,2-c]pyridine]: 50 to 70% and 1 to 5 µM.
Consider `Cn1nc(C2(C(F)(F)F)CC2)cc1N1CCc2[nH]c(-c3c(F)cccc3F)cc2C1` [Example 123, 2-(2,6-Difluoro-phenyl)-5-[2-methyl-5-[1-(trifluoromethyl)-cyclopropyl]-2H-pyrazol-3-yl]-4,5,6,7-tetrahydro-1H-pyrrolo[3,2-c]pyridine], for which, in assay [1], the inhibition at 10 µM was above 70%. Besides, in assay [2], the IC50 was 0.5 to 1 µM.
Regarding `CCn1nc(C2(C(F)(F)F)CC2)cc1N1CCc2[nH]c(-c3c(F)cccc3F)cc2C1` [Example 124, 2-(2,6-Difluoro-phenyl)-5-[2-ethyl-5-[1-(trifluoromethyl)-cyclopropyl]-2H-pyrazol-3-yl]-4,5,6,7-tetrahydro-1H-pyrrolo[3,2-c]pyridine], the inhibition at 10 µM in assay [1] was below 50%. The IC50 in assay [2] was below 0.5 µM.
The matching figures for `CCn1nc(C2CC2)cc1N1CCc2[nH]c(-c3c(F)cccc3F)cc2C1` [Example 126, 5-(5-Cyclopropyl-2-ethyl-2H-pyrazol-3-yl)-2-(2,6-difluoro-phenyl)-4,5,6,7-tetrahydro-1H-pyrrolo[3,2-c]pyridine]: above 70% and 0.5 to 1 µM.
Taken in the same sequence, the figures for `CNS(=O)(=O)c1ccc(N2CCc3[nH]c(-c4cnc(C)cc4C)cc3C2)c(C)c1` [Example 127, 4-[2-(4,6-Dimethyl-pyridin-3-yl)-4,5,6,7-tetrahydro-1H-pyrrolo[3,2-c]pyridin-5-yl]-N,3-dimethyl-benzenesulfonic acid amide] were above 70% and 1 to 5 µM.
The matching figures for `CNS(=O)(=O)c1ccc(N2CCc3[nH]c(C4CCC(F)(F)CC4)cc3C2)c(C)c1` [Example 128, 4-[2-(4,4-Difluoro-cyclohexyl)-4,5,6,7-tetrahydro-1H-pyrrolo[3,2-c]pyridin-5-yl]-N,3-dimethyl-benzenesulfonic acid amide]: below 50% and 1 to 5 µM.
As to `CNS(=O)(=O)c1ccc(N2CCc3[nH]c(C4CCCCC4)cc3C2)c(C)c1` [Example 129], the inhibition at 10 µM in assay [1] is below 50%. In addition, the IC50 in assay [2] was in the range of 1 to 5 µM.
The matching figures for `CCn1nc(C(F)(F)F)cc1N1CCc2[nH]c(-c3c(F)cccc3F)cc2C1` [Example 130, 2-(2,6-Difluoro-phenyl)-5-[2-ethyl-5-(trifluoromethyl)-2H-pyrazol-3-yl]-4,5,6,7-tetrahydro-1H-pyrrolo[3,2-c]pyridine]: above 70% and below 0.5 µM.
With `CCNS(=O)(=O)c1ccc(N2CCc3[nH]c(-c4c(F)cccc4F)cc3C2)c(C)c1` [Example 131, 4-[2-(2,6-Difluoro-phenyl)-4,5,6,7-tetrahydro-1H-pyrrolo[3,2-c]pyridin-5-yl]-N-ethyl-3-methyl-benzenesulfonic acid amide], in assay [1], the inhibition at 10 µM is below 50%. The IC50 in assay [2] is 1 to 5 µM.
The matching figures for `Cc1cc(N(C)S(C)(=O)=O)ccc1N1CCc2[nH]c(-c3c(F)cccc3F)cc2C1` [Example 132, N-[4-[2-(2,6-Difluoro-phenyl)-4,5,6,7-tetrahydro-1H-pyrrolo[3,2-c]pyridin-5-yl]-3-methyl-phenyl]-N-methyl-methanesulfonic acid amide]: below 50% and 1 to 5 µM.

Usually IC50 stands for the point on the concentration scale where inhibition reaches its midpoint.

Values taken from patent publication US20160151337A1, “ANNELATED PYRROLES AND THEIR USE AS CRAC INHIBITORS” (Grünenthal GmbH, priority 2013, published 2016).
